The structures appear in SMILES notation.

One may read the inhibition as the relative decrease from the control value, in per cent. As a reminder, the Ki is a measure of affinity in units of concentration, obtained from inhibition or displacement. In general, melting point refers to the temperature, or range, at which the solid turns liquid.

The target of data set [1] is T1, human MAO B (Homo sapiens, UniProt P27338).
T1 sequence (P27338 1-520): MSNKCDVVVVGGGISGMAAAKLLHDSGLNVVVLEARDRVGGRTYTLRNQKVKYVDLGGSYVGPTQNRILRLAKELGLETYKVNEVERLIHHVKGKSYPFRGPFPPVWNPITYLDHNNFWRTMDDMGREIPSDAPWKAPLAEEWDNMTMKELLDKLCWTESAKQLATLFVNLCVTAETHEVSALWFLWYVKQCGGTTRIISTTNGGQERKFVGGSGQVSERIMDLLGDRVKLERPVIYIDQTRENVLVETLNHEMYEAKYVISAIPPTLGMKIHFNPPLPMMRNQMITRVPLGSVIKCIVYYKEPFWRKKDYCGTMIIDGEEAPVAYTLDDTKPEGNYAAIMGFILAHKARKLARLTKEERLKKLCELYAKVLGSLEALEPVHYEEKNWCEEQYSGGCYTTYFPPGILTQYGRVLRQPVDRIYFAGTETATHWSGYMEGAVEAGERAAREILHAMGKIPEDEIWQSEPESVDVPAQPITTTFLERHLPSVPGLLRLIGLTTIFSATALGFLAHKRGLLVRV
The data set is described as follows: Human MAO B inhibition, fluorometric method. Type of data set: biochemical. The settings on record: mean of two independent experiments, read-out: % of hMAO B Inhibition at 1 µM. The protocol: The compounds were tested twice in duplicates at a concentration of 1 μM by fluorometric method as previously described. Paratyramine (200 μM) was used as a substrate for the enzyme. Safinamide (1 μM; reversible) and rasagiline (1 μM; irreversible) were used as reference inhibitors.

For data set [2], the system named is HepG2 cells. Nature of the data set: Hepatotoxicity, MTS cell viability. It counts as cell-based, human. The settings on record: 0.098 μM to 100 μM, 48 h. How it is done:
Drug safety is a critical step in the process of drug development. […] In our studies, neurotoxicity and hepatotoxicity were evaluated in SH-SY5Y and HepG2 cells, respectively. The compounds were tested at 11 concentrations from 0.098 μM to 100 μM (see Figure 5). Cell viability was assessed after incubation for 24 h with the SH-SY5Y line and for 48 h with the HepG2 line.
To evaluate neurotoxicity and hepatotoxicity, the human neuroblastoma cell line SH-SY5Y (ATCC® no. CRL-2266™) and hepatoma cell line HepG2 (ATCC® no. HB-8065™) were used, respectively. The cells (SH-SY5Y: 5 × 10^3 cells/100μL/well and HepG2: 7 × 10^3 cells/100 μL/well) were seeded in transparent 96-well plates (Nunc) in DMEM supplemented with 10% FBS and cultured overnight. The next day, the medium was changed to medium containing dimethylsulfoxide (DMSO < 0.1%, vehicle control) or an increasing concentration of compounds MZ-1483 (19), MZ-1490 (22) and MZ-1495 (24) ([…]–100 × 10^−6 M). To perform dose-response analysis, two-fold serial dilutions (11 points) were prepared. Treatment with compounds was performed for 48 h. After the incubation time, the cell viability was examined using an MTS-based [3-(4,5-dimethylthiazol-2-yl)-5-(3-carboxymethoxyphenyl)-2-(4-sulfophenyl)-2 H tetrazolium] CellTiter96® AQueous One Solution Cell Proliferation Assay (Promega, Madison, WI, USA) following the manufacturer’s protocol. Briefly, 20 μL of MTS solution was pipetted into each well containing 100 μL of culture or culture medium (negative control) and incubated at 37 °C for 1 h. After incubation time, formazan product turnover absorbance was measured at 490 nm using the microplate reader (Tecan Spark®, Tecan Group Ltd., Maennedorf, Switzerland). A reference wavelength of 630 nm was used.

In data set [3] the target is T2, human adenosine A2BR (Homo sapiens, UniProt P29275).
T2 construct: expressed in transfected cells; host or cells: CHO cells
T2 sequence (P29275 1-332): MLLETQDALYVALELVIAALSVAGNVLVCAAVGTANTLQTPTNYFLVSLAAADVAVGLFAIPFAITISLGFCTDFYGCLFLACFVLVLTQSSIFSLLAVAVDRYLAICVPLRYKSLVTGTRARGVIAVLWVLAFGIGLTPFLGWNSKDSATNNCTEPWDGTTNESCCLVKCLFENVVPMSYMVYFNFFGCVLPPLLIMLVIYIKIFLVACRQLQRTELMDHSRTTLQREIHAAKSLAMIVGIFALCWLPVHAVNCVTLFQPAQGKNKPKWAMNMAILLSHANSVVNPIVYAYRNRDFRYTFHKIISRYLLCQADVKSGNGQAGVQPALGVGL
Nature of the data set: Radioligand binding at human adenosine A2B receptor vs. [3H]PSB-603. As to conditions: for inhibition at 1 µM: CHO cells, read-out: A2BR vs. [³H]PSB-603 % Inhibition ± SEM at 1 µM; for Ki: human recombinant receptor in CHO cells, read-out: A2BR vs. [³H]PSB-603 Ki ± SEM.

Data set [4] deals with T3, human adenosine A3R (Homo sapiens, UniProt P0DMS8).
T3 construct: expressed in transfected cells; host or cells: CHO cells
T3 sequence (P0DMS8 1-318): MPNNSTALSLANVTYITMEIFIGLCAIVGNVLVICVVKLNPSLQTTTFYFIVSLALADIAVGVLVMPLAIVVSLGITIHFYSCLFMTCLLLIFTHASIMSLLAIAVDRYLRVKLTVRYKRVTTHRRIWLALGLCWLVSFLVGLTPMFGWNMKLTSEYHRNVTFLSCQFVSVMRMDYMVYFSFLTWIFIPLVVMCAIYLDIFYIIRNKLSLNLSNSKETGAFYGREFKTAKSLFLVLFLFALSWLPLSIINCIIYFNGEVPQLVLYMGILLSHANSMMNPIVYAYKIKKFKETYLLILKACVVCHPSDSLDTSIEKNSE
The data set is described as follows: Radioligand binding at human adenosine A3 receptor vs. [3H]PSB-11. The settings on record: for inhibition at 1 µM: CHO cells, read-out: A3R vs. [H³]PSB-11 % Inhibition ± SEM at 1 µM; for Ki: human recombinant receptor in CHO cells, read-out: A3R vs. [H³]PSB-11 Ki ± SEM.

The target in data set [5] is T4, human adenosine A2AR (Homo sapiens, UniProt P29274).
T4 construct: expressed in transfected cells; host or cells: CHO cells
T4 sequence (P29274 whole entry): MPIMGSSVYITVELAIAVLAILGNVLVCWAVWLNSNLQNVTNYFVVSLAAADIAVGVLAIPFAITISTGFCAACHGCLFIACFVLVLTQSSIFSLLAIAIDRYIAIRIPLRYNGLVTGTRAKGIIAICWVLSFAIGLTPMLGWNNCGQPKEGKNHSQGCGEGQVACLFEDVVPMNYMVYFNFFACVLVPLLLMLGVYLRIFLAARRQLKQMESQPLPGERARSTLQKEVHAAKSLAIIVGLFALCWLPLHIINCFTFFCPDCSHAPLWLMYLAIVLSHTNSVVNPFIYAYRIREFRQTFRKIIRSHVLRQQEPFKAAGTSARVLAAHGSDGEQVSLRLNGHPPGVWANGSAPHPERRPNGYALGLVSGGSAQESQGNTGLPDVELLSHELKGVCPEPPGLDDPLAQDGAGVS
The data set is described as follows: Radioligand binding at human adenosine A2A receptor vs. [3H]MSX-2. The settings on record: for potency as A2AR ligand compared with A1R: from Ki values of Table 1; for Ki: human recombinant receptor in CHO cells, read-out: A2AR vs. [³H]MSX-2 Ki ± SEM.

In data set [6] the test system is BV-2 cells treated with LPS. Nature of the data set: Griess assay, NO production. As to conditions: BV-2, LPS 1 μg/mL 24 h; at the lowest concentrations (19: 100 nM; 22: 100 and 200 nM). (In general: The Griess reaction detects nitrite, a stable product of nitric oxide.)
Method: To assess the ability of compounds to inhibit NO production, the Griess assay was applied. This is a colorimetric assay to measure the levels of nitrite (NO2^−), which is one of the primary and stable metabolites of NO. The anti-inflammatory activity of compounds was examined in BV-2 cells treated with LPS as previously described [19]. Briefly, BV-2 cells were first pre-treated with increasing concentrations of tested compounds for 1 h, followed by LPS (1 μg/mL) stimulation for 24 h. Together with the Griess assay, the 3-(4,5-dimethylthiazol-2-yl)-5-(3-carboxymethoxyphenyl)-2-(4-sulfophenyl)-2H-tetrazolium (MTS) assay was performed to ensure that the decrease in NO level was not an effect of toxicity.
Griess reagent (Sigma-Aldrich, Saint Louis, MO, USA, G4410) was freshly prepared by dissolving 1 g in ultrapure water and mixing by inversion for about 4 min under protection from light. […] The plate was incubated for 15 min at room temperature and the absorbance was read at 540 nm using the EnSpire microplate reader (PerkinElmer, Waltham, MA, USA). Data were analyzed by direct comparison based on the average absorbance of LPS treatment, compound treatment or co-treatment with LPS, performed by normalizing treated cells (compound alone or co-treatment with LPS) to LPS-treated cells set at 100%.

In turn, `C#CCn1c(=O)c2c(nc(NCc3cccc(Br)c3)n2C)n(C)c1=O` [compound 24, 8-((3-Bromobenzyl)amino)-3,7-dimethyl-1-(prop-2-yn-1-yl)-3,7-dihydro-1H-purine-2,6-dione] gave a melting point of 248 to 250 °C. For the same molecule, the inhibition at 1 µM in data set [1] came out at 10%. Further, the “hepatotoxicity, cell viability (in words)” value (“hepatotoxicity … (in words)” for short) in data set [2] is “high safety profile”. Also, in data set [3], the inhibition at 1 µM was determined as 25% and the Ki is over 1 µM. Moreover, in data set [4], the inhibition at 1 µM is 7% and the Ki was over 1 µM. Also, in data set [5], the “potency as A2AR ligand compared with A1R” value is reported as “equal potency for both receptors” and the Ki turned out to be 0.077 ± 0.024 µM.
Regarding `C#CCn1c(=O)c2c(nc(NCc3c(F)cccc3Cl)n2C)n(C)c1=O` [compound 22, 8-((2-Chloro-6-fluorobenzyl)amino)-3,7-dimethyl-1-(prop-2-yn-1-yl)-3,7-dihydro-1H-purine-2,6-dione], the melting point fell in the range of 276 to 278 °C. Also, in data set [1], the inhibition at 1 µM was found to be 7%. Also, in data set [6], the “anti-inflammatory activity in Griess assay (in words)” value is “moderate anti-inflammatory activity”. For the same molecule, in data set [2], the “hepatotoxicity … (in words)” value was “high safety profile”. Besides, in data set [3], the inhibition at 1 µM was 41% and the Ki is over 1 µM. In data set [4], the inhibition at 1 µM amounted to 21% and the Ki was over 1 µM. Moreover, in data set [5], the “potency as A2AR ligand compared with A1R” value is on record as “twice more potent as A2AR ligand” and the Ki was determined as 0.062 ± 0.005 µM.
In turn, `C#CCn1c(=O)c2c(nc(NCc3ccccc3Cl)n2C)n(C)c1=O` [compound 19, 8-((2-Chlorobenzyl)amino)-3,7-dimethyl-1-(prop-2-yn-1-yl)-3,7-dihydro-1H-purine-2,6-dione] gave a melting point of 223 to 225 °C. Moreover, the inhibition at 1 µM in data set [1] was 6%. In data set [6], the “anti-inflammatory activity in Griess assay (in words)” value is given as “moderate anti-inflammatory activity”. Moreover, the “hepatotoxicity … (in words)” value in data set [2] is listed as “high safety profile”. In addition, in data set [3], the inhibition at 1 µM was 14% and the Ki is over 1 µM. For the same molecule, in data set [4], the inhibition at 1 µM stood at 9% and the Ki is over 1 µM. Further, in data set [5], the “potency as A2AR ligand compared with A1R” value is recorded as “four times more potent as A2AR ligand” and the Ki was determined as 0.096 ± 0.031 µM.
